Test results reported in US20080312197A1, “PHARMACEUTICAL PRODUCTS CONTAINING HORMONES AND A 25-HYDROXY VITAMIN D COMPOUND” (priority 2007, published 2008).

Experiments:
HIO-118V cells [1] = assay: MTS cell viability assay, immortalized human ovarian epithelial cells (HIO-118V); assay type: cell-based
Protocol: (§1) Progesterone and Vitamin D (1,25(OH)2 D3) were tested to determine their effect on cell lines derived from the human ovarian surface epithelium. […] This is shown in FIGS. 1-3 in both ovarian cancer cell lines (OVCAR 5 and OVCAR 3) as well as an immortalized cell cultures derived from the normal human ovarian epithelium (HIO-118V). There is a marked impact on cell viability when the two agents are combined and administered at a dosage that has a marginal impact for each agent given alone.

OVCAR 3 cells = assay: MTS cell viability assay, OVCAR 3 cells; assay type: cell-based, human
Protocol: as §1

HIO-118V cells [2] = assay: Apoptosis by TUNEL method, HIO-118V cells; assay type: cell-based, human; details: 45 uM progesterone, 1 uM Vitamin D
Protocol: In experiments to further understand the effect of progestin and vitamin D on cell viability, experiments were conducted to determine how progestin, vitamin D, and the combination act to induce apoptosis. In the experiment cells were incubated for 28 and 48 hours in the hormonal treatments as indicated and assessed for TUNEL reactivity. In these experiments, Apoptosis (TUNEL) data shown in conditions in which inhibitory effects via MTS were shown. In the example shown in FIG. 4, OVCAR 3 cells undergo a 7-fold increase in apoptosis at 48 hrs when treated with a combination of progesterone and vitamin D. HIO-118V cells show a 1.7-fold increase in apoptosis with 45 uM progesterone alone and a 1.9-fold increase with the combination of 1 uM Vitamin D and 45 uM progesterone.

OVCAR 5 cells = assay: MTS cell viability assay, OVCAR 5 cells; assay type: cell-based, human
Protocol: as §1

[3] = test system: Vitamin D 24 hydroxylase (24-OH); assay: Western blot of 24 hydroxylase expression in OVCAR 3 cells; assay type: cell-based, human; details: 18 hours, 100 nM Vitamin D, 25 μM progesterone, 25 μM Genistein
Excerpt: Protein was then extracted from the cells and 24-OH expression was the measured via Western Blot, and the degree of expression (band density) measured via a densitometer.

[4] = 0.5 micrograms per day or 5 micrograms per week; cited from earlier work
[5] = cited from earlier work
24 hydroxylase (24-OH) = biological target: T1, 24 hydroxylase (24-OH) (Homo sapiens, UniProt Q07973); details: shown by others; cited from earlier work
T1 sequence (Q07973 36-514): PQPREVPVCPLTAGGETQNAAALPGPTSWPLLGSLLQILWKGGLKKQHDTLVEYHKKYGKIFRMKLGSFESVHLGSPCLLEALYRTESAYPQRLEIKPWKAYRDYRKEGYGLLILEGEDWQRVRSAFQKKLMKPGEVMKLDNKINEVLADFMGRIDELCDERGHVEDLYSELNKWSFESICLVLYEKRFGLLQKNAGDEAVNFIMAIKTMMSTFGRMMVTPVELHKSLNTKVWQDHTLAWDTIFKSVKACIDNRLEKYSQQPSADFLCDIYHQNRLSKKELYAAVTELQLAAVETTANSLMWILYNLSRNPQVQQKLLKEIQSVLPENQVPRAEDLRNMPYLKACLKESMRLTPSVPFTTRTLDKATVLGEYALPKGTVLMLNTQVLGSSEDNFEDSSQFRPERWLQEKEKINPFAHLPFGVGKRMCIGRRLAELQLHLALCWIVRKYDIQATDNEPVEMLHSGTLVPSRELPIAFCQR

Compound | cell viability (MTS assay) (HIO-118V cells [1]) | cell viability (MTS assay) (OVCAR 3 cells) | cell viability (MTS assay) (OVCAR 5 cells) | 24-OH expression (Western blot, band density) [3] | half life after oral administration [5] | other results
CC(=O)[C@H]1CC[C@H]2[C@@H]3CCC4=CC(=O)CC[C@]4(C)[C@H]3CC[C@]12C [Progesterone, progesterone] | inhibit cell viability in a dose response fashion | inhibit cell viability in a dose response fashion | inhibit cell viability in a dose response fashion | causes both degradation and decreases production of 24 hydroxylase | – | increase in apoptosis (TUNEL) (HIO-118V cells [2]): 1.7 fold
C=C1/C(=C\C=C2/CCC[C@]3(C)[C@@H]([C@H](C)CCCC(C)(C)O)CC[C@@H]23)C[C@@H](O)C[C@@H]1O [Vitamin D (1,25(OH)2 D3), 1,25-dihydroxyvitamin D3] | inhibit cell viability in a dose response fashion | inhibit cell viability in a dose response fashion | inhibit cell viability in a dose response fashion | – | 5 to 8 h | individuals developing hypercalcemia [4]: 1-3%; serum half-life ([5]; serum): 6 to 8 h
1,25-dihydroxyvitamin D3 [Vitamin D (1,25(OH)2 D3)] | – | – | – | markedly induced | – | –
C=C1CC[C@H](O)C/C1=C/C=C1\CCC[C@]2(C)[C@@H]([C@H](C)CCCC(C)(C)O)CC[C@@H]12 [25(OH) D3, 25-hydroxyvitamin D3] | – | – | – | – | approximately 2 weeks | –
O=c1c(-c2ccc(O)cc2)coc2cc(O)cc(O)c12 [Genistein, genistein] | – | – | – | – | – | inhibition of 24-OH (24 hydroxylase (24-OH)): inhibit 24-OH
